41 compounds from patent publication US6794386B2, “β-amino acid compounds as integrin antagonists” (Bayer Aktiengesellschaft, priority 2000, dated 2004) can be followed below.

The assay deals with T1, VLA-4 (Homo sapiens, UniProt P05556+P13612).
T1 construct: host or cells: Jurkat clone E6-1
As to the kind of experiment: Adhesion of Jurkat cells to immobilized VCAM-1 (domains 1-3). In kind it is cell-based. The arrangement: scale not given here. The settings on record: adhesion of CFSE-labeled Jurkat cells to recombinant human VCAM-1 (domains 1-3) coated plates, compounds as yielded by solid phase synthesis, purity about 40-90%. On the procedure: In Vitro Assay: Adhesion of Jurkat Cells to Immobilized VCAM-1 (Domains 1-3).
Preparation of Fluorescence Labeled Jurkat Cells:
Jurkat cells (American Type Culture Collection, Clone E6-1, ATCC TIB-152) were cultured in RPMI 1640 medium (Nikken Bio Medical Laboratory, CM1101) supplemented with 10% fetal bovine serum (Hyclone, A-1119-L), 100 U/ml penicilin (Gibco BRL, 15140-122) and 100 μg/ml streptomycin (Gibco BRL, 15140-122) in a humidified incubator at 37° C. with 5% CO2.
Jurkat cells were incubated with phosphate balanced solution (PBS, Nissui, 05913) containing 25 μM of 5(-and-6)-carboxyfluorescein diacetate, succinimidyle ester (CFSE, Dojindo Laboratories, 345-06441) for 20 min at room temperature while gently swirling every 5 min. After centrifugation at 1000 rpm for 5 min, the cell pellet was resuspended with adhesion assay buffer at a cell density of 2×10^6 cells/ml. The adhesion assay buffer was composed of 24 mM Tris-HCl (pH 7.4), 137 mM NaCl, 27 mM KCl, 4 mM glucose, 0.1% bovine serum albumin (BSA, Sigma, A9647) and 2 mM MnCl2.
Preparation of VCAM-1 (Extracellular Domains 1-3):
Complementary DNA (cDNA) encoding 7-domain form of VCAM-1 (GenBank accession #M60335) was obtained using Rapid-Screen™ cDNA library panels (OriGene Technologies, Inc) at Takara Gene Analysis Center (Shiga, Japan). The primers used were 5′-CCAAGGCAGAGTACGCAAAC-3′ (sence) and 5′-TGGCAGGTATTATTAAGGAG-3′ (antisense). PCR amplification of the 3-domain VCAM-1 cDNA was perform using Pfu DNA polymerase (Stratagene) with the following sets of primers: (U-VCAMd1-3) 5′-CCATATGGTACCTGATCAATTTAAAATCGAGACCACCCCAGAA-3′; (L-VCAMd1-3) 5′-CCATATAGCAATCCTAGGTCCAGGGGAGATCTCAACAGTAAA-3′. PCR cycle was 94° C. for 45 sec, 55° C. for 45 sec, 72° C. for 2 min, repeating 15 cycles. After the purification of the PCR product, the fragment was digested with KpnI-AvrII. The digested fragment was ligated into pBluescript IISK(−) (Strategene), which was linealized by digesting with KpnI-XhoI. The ligation was followed by transformation to a Dam/Dcm methylase-free E. coli strain SCS110 (Strategene) to create the donor plasmid pH7. To direct VCAM-1 molecule into the insect cell secretory pathway, the VCAM-1 coding sequence was fused to signal peptide sequence of honeybee melittin. The resulting melittin-VCAM fusion was placed in correct orientation to the baculoviris polyhedrin promoter. Baculovirus transfer vector containing first 3-domain form VCAM-1 (pH10) was constructed by ligation of 0.9 kb fragment from AvrII/Klenow/BclI digests of pH7 into SalI/Klenow/BamHI digests of pMelBacB (Invitrogen). Recombinant baculovirus was generated by using Bac-N-Blue™ Transfection kit (Invitrogen) according to the manufacture's instruction. The recombinant virus was amplified by infection to High-Five™ insect cells for 5-6 days, and virus titer was determined by plaque assay.
High-Five™ insect cells were pelleted in a 225 ml conical tube by centrifugation at 1000 rpm for 5 min After discarding the supernatant, the pellet was resuspended in 1.5×10^9 pfu (MOI=5) of high-titer virus solution, followed by incubation for 1.5 hours at room temperature. The cells were pelleted again and washed once in fresh Express Five™ serum free medium. The cells were pelleted again and finally, resuspended in 200 ml of fresh Express Five™ medium, transferred to a 1,000 ml shaker flask, and incubated in a shaker at 27° C., 130 rpm, for 48 hours before the culture supernatant was collected. The purification of 3-domain form of VCAM-1 from the culture supernatant was performed by one-step anion exchange chromatography. Protein concentration was determined by using Coomassie protein assay reagent (Pierce) according to the manufacture's instruction.
Preparation of Microtiter Plates:
Recombinant human VCAM-1 (extracellular domains 1-3) was dissolved at 0.5 μg/ml in PBS. […]

Like-named read-outs stand apart in the source and are kept apart here.

Broadly, the IC50 is the concentration at which inhibition is half-maximal.

T1 sequence (P13612 34-1032): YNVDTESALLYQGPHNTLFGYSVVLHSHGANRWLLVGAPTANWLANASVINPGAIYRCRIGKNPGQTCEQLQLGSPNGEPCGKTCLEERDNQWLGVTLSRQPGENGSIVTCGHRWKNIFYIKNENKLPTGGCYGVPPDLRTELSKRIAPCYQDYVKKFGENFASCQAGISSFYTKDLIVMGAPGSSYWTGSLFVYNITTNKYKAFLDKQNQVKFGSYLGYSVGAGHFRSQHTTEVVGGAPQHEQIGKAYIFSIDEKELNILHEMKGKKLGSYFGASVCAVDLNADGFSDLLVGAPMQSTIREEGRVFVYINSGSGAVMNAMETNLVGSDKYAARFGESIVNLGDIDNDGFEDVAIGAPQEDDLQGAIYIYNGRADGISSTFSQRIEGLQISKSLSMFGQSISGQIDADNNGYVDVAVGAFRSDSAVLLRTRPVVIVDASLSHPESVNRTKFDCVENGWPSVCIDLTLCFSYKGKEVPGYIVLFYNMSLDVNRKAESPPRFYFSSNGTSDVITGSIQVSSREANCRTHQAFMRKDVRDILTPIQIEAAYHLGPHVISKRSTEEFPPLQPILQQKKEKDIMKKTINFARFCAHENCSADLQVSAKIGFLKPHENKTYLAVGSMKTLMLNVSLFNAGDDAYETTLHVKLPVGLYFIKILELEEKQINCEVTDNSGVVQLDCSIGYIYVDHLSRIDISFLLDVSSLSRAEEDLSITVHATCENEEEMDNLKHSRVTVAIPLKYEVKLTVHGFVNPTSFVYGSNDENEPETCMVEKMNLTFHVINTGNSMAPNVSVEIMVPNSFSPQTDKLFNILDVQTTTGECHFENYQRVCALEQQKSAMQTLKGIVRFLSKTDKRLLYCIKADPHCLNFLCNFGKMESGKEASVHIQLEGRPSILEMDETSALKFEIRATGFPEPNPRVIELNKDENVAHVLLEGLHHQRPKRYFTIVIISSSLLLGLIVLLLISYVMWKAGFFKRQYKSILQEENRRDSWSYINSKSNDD
T1 sequence (P05556 21-798): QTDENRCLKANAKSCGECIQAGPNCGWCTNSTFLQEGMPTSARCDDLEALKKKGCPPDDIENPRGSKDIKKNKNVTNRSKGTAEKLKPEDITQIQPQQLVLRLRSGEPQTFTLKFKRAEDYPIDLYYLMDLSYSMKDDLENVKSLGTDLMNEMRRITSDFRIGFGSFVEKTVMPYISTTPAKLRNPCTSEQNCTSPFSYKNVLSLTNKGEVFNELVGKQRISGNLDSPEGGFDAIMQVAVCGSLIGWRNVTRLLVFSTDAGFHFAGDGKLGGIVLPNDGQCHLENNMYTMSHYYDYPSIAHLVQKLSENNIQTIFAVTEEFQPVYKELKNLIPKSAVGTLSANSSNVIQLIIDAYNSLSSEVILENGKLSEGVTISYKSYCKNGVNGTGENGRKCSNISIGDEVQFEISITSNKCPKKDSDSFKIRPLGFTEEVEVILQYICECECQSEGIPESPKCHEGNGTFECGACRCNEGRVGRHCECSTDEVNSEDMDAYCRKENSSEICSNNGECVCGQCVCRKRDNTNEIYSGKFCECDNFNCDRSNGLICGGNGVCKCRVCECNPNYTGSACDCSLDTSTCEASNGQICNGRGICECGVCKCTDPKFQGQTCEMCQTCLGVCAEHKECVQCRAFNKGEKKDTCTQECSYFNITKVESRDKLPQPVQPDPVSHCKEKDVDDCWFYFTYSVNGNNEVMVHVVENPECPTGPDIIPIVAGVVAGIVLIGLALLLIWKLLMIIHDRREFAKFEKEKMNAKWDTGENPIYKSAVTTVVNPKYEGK

Turning to `Cc1ccccc1-c1ccc(C[C@H](NC(=O)C2CCCN(C(=O)OC3CCCC3)C2)C(=O)O)cc1` (some centres unmarked) [Example 1.39], the IC50 (read-out: IC50) fell in the range of 500 to 2000 nM.

With `O=C(N[C@@H](Cc1ccc(-c2ccc(Cl)cc2Cl)cc1)C(=O)O)C1CCCN(C(=O)Cc2ccccc2)C1` (some centres unmarked) [Example 1.40], the IC50 entry is given as “C-D”.

For the compound `O=C(N[C@@H](Cc1ccc(-c2ccc(Cl)cc2Cl)cc1)C(=O)O)C1CCCN(C(=O)c2cccc(Cl)c2)C1` (some centres unmarked) [Example 1.41], the IC50 entry was “C-D”. Consider `Cc1ccc(C(=O)N2CCCC(C(=O)N[C@@H](Cc3ccc(-c4ccc(Cl)cc4Cl)cc3)C(=O)O)C2)cc1` (some centres unmarked) [Example 1.42], for which the IC50 result is “B-C”. The same measure, in the same setting: next, `O=C(N[C@@H](Cc1ccc(-c2ccc(Cl)cc2Cl)cc1)C(=O)O)C1CCCN(C(=O)c2ccc3c(c2)OCO3)C1` (some centres unmarked) [Example 1.43]: “C-D”; `O=C(N[C@@H](Cc1ccc(-c2ccc(Cl)cc2Cl)cc1)C(=O)O)C1CCCN(C(=O)C2CCCCC2)C1` (some centres unmarked) [Example 1.44]: “C-D”. On the same count and under the same terms, next, `Cc1cc(Cl)c(CC(=O)N2CCCC(C(=O)N[C@@H](Cc3ccc(-c4ccc(Cl)cc4Cl)cc3)C(=O)O)C2)c(Cl)c1` (some centres unmarked) [Example 1.45]: “C-D”. On to `COc1ccccc1C(=O)N1CCCC(C(=O)N[C@@H](Cc2ccc(-c3ccc(Cl)cc3Cl)cc2)C(=O)O)C1` (some centres unmarked) [Example 1.46], for which, for the setting “read-out: IC50”, the IC50 lay within 2000 to 10000 nM. `Cc1cc(C)c(OC(=O)N2CCCC(C(=O)N[C@@H](Cc3ccc(-c4ccc(Cl)cc4Cl)cc3)C(=O)O)C2)c(C)c1` (some centres unmarked) [Example 1.47]: the IC50 entry is recorded as “C-D”.

Regarding `O=C(N[C@@H](Cc1ccc(-c2ccc(Cl)cc2Cl)cc1)C(=O)O)C1CCCN(C(=O)OC2CCCC2)C1` (some centres unmarked) [Example 1.48], the IC50 (read-out: IC50) fell in the range of 2000 to 10000 nM.

In the case of `O=C(N[C@@H](Cc1ccc(-c2cc(Cl)ccc2Cl)cc1)C(=O)O)C1CCCN(C(=O)Cc2ccccc2)C1` (some centres unmarked) [Example 1.49], the IC50 result is recorded as “C-D”. As for `O=C(N[C@@H](Cc1ccc(-c2cc(Cl)ccc2Cl)cc1)C(=O)O)C1CCCN(C(=O)c2cccc(Cl)c2)C1` (some centres unmarked) [Example 1.50], the IC50 (read-out: IC50) was in the range of 2000 to 10000 nM. `Cc1ccc(C(=O)N2CCCC(C(=O)N[C@@H](Cc3ccc(-c4cc(Cl)ccc4Cl)cc3)C(=O)O)C2)cc1` (some centres unmarked) [Example 1.51]: the IC50 result is “C-D”. Turning to `O=C(N[C@@H](Cc1ccc(-c2cc(Cl)ccc2Cl)cc1)C(=O)O)C1CCCN(C(=O)c2ccc3c(c2)OCO3)C1` (some centres unmarked) [Example 1.52], the IC50 result was “C-D”.

For the compound `O=C(N[C@@H](Cc1ccc(-c2cc(Cl)ccc2Cl)cc1)C(=O)O)C1CCCN(C(=O)C2CCCCC2)C1` (some centres unmarked) [Example 1.53], the IC50 result is “C-D”.

In the case of `O=C(N[C@@H](Cc1ccc(-c2cc(Cl)ccc2Cl)cc1)C(=O)O)C1CCCN(C(=O)c2ccccc2Cl)C1` (some centres unmarked) [Example 1.54], the IC50 (read-out: IC50) was 2000 to 10000 nM.

As for `CC1(C)C2CCC1(CS(=O)(=O)N1CCCC(C(=O)N[C@@H](Cc3ccc(-c4ccccc4)cc3)C(=O)O)C1)C(=O)C2` (some centres unmarked) [Example 1.55], the IC50 result is reported as “C-D”. For `Cc1ccc(S(=O)(=O)N2CCCC(C(=O)N[C@@H](Cc3ccc(-c4ccccc4)cc3)C(=O)O)C2)cc1` (some centres unmarked) [Example 1.56], the IC50 (read-out: IC50) was in the range of 500 to 2000 nM. On to `COC(=O)c1ccccc1S(=O)(=O)N1CCCC(C(=O)N[C@@H](Cc2ccc(-c3ccccc3)cc2)C(=O)O)C1` (some centres unmarked) [Example 1.57], for which the IC50 entry is “C-D”. As for `O=C(N[C@@H](Cc1ccc(-c2ccccc2)cc1)C(=O)O)C1CCCN(S(=O)(=O)c2ccc3ccccc3c2)C1` (some centres unmarked) [Example 1.58], the IC50 result is reported as “C-D”.

In the case of `O=C(N[C@@H](Cc1ccc(-c2ccccc2)cc1)C(=O)O)C1CCCN(S(=O)(=O)c2c(Cl)cccc2Cl)C1` (some centres unmarked) [Example 1.59], the IC50 result was “C-D”. Take `COc1ccc(S(=O)(=O)N2CCCC(C(=O)N[C@@H](Cc3ccc(-c4ccccc4)cc3)C(=O)O)C2)cc1OC` (some centres unmarked) [Example 1.60]: the IC50 entry is on record as “C-D”. Take `O=C(N[C@@H](Cc1ccc(-c2ccccc2)cc1)C(=O)O)C1CCCN(S(=O)(=O)c2ccccc2C(F)(F)F)C1` (some centres unmarked) [Example 1.61]: the concentration for half-maximal inhibition (IC50) result is given as “C-D”.

In the case of `COc1ccc(Cl)cc1S(=O)(=O)N1CCCC(C(=O)N[C@@H](Cc2ccc(-c3ccccc3)cc2)C(=O)O)C1` (some centres unmarked) [Example 1.62], the IC50 result is “C-D”. Still for that read-out and setting: next, `O=C(N[C@@H](Cc1ccc(-c2ccccc2)cc1)C(=O)O)C1CCCN(S(=O)(=O)Cc2ccccc2)C1` (some centres unmarked) [Example 1.63]: “C-D”; `O=C(N[C@@H](Cc1ccc(-c2ccccc2)cc1)C(=O)O)C1CCCN(S(=O)(=O)c2cc(Cl)cc(Cl)c2)C1` (some centres unmarked) [Example 1.64]: “C-D”; `Cc1ccc(-c2ccc(C[C@H](NC(=O)C3CCCN(S(=O)(=O)CC45CCC(CC4=O)C5(C)C)C3)C(=O)O)cc2)cc1` (some centres unmarked) [Example 1.65]: “C-D”. Take `Cc1ccc(-c2ccc(C[C@H](NC(=O)C3CCCN(S(=O)(=O)c4ccc(C)cc4)C3)C(=O)O)cc2)cc1` (some centres unmarked) [Example 1.66]: the 50% inhibitory concentration (IC50) result is “C-D”. As for `COC(=O)c1ccccc1S(=O)(=O)N1CCCC(C(=O)N[C@@H](Cc2ccc(-c3ccc(C)cc3)cc2)C(=O)O)C1` (some centres unmarked) [Example 1.67], the concentration for half-maximal inhibition (IC50) result was “C-D”. Same read-out and setting: next, `Cc1ccc(-c2ccc(C[C@H](NC(=O)C3CCCN(S(=O)(=O)c4ccc5ccccc5c4)C3)C(=O)O)cc2)cc1` (some centres unmarked) [Example 1.68]: “C-D”. Take `Cc1ccc(-c2ccc(C[C@H](NC(=O)C3CCCN(S(=O)(=O)c4c(Cl)cccc4Cl)C3)C(=O)O)cc2)cc1` (some centres unmarked) [Example 1.69]: the IC50 result is “C-D”. On to `COc1ccc(S(=O)(=O)N2CCCC(C(=O)N[C@@H](Cc3ccc(-c4ccc(C)cc4)cc3)C(=O)O)C2)cc1OC` (some centres unmarked) [Example 1.70], for which the IC50 entry is “C-D”. With `Cc1ccc(-c2ccc(C[C@H](NC(=O)C3CCCN(S(=O)(=O)c4ccccc4C(F)(F)F)C3)C(=O)O)cc2)cc1` (some centres unmarked) [Example 1.71], the IC50 result was “C-D”. The same measure, in the same setting: next, `COc1ccc(Cl)cc1S(=O)(=O)N1CCCC(C(=O)N[C@@H](Cc2ccc(-c3ccc(C)cc3)cc2)C(=O)O)C1` (some centres unmarked) [Example 1.72]: “C-D”. With `Cc1ccc(-c2ccc(C[C@H](NC(=O)C3CCCN(S(=O)(=O)Cc4ccccc4)C3)C(=O)O)cc2)cc1` (some centres unmarked) [Example 1.73], the IC50 entry was “C-D”.

In the case of `Cc1ccc(-c2ccc(C[C@H](NC(=O)C3CCCN(S(=O)(=O)c4cc(Cl)cc(Cl)c4)C3)C(=O)O)cc2)cc1` (some centres unmarked) [Example 1.74], the IC50 result is on record as “C-D”. `COc1ccc(-c2ccc(C[C@H](NC(=O)C3CCCN(S(=O)(=O)CC45CCC(CC4=O)C5(C)C)C3)C(=O)O)cc2)cc1` (some centres unmarked) [Example 1.75]: the IC50 entry is recorded as “C-D”. Turning to `COc1ccc(-c2ccc(C[C@H](NC(=O)C3CCCN(S(=O)(=O)c4ccc(C)cc4)C3)C(=O)O)cc2)cc1` (some centres unmarked) [Example 1.76], the IC50 entry is “C-D”. Still for that read-out and setting: next, `COC(=O)c1ccccc1S(=O)(=O)N1CCCC(C(=O)N[C@@H](Cc2ccc(-c3ccc(OC)cc3)cc2)C(=O)O)C1` (some centres unmarked) [Example 1.77]: “C-D”; `COc1ccc(-c2ccc(C[C@H](NC(=O)C3CCCN(S(=O)(=O)c4ccc5ccccc5c4)C3)C(=O)O)cc2)cc1` (some centres unmarked) [Example 1.78]: “C-D”; `COc1ccc(-c2ccc(C[C@H](NC(=O)C3CCCN(S(=O)(=O)c4c(Cl)cccc4Cl)C3)C(=O)O)cc2)cc1` (some centres unmarked) [Example 1.79]: “C-D”.
